Measurements taken from publication PMC5916221, “High-throughput identification of G protein-coupled receptor modulators through affinity mass spectrometry screening” (Chemical Science, 2018).
“And” between values parts separate entries of the source, which are not always exact repeats. Identical values can stand only once.

Experiments:
[1] = target: T1, glucagon-like peptide-1 receptor (GLP-1R) (Homo sapiens, UniProt P43220, DEL258-263); experiment: affinity MS on receptor-expressing membranes, binding index vs rhodopsin control
T1 construct: gene GLP1R; TMD residues 128–431 with intracellular loop 2 (258–263) replaced by rubredoxin, N-terminal BRIL
T1 sequence (P43220 128-257): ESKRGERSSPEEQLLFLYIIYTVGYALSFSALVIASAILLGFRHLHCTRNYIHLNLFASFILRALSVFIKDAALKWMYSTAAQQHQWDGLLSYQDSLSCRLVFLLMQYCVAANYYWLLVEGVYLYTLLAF
T1 sequence (P43220 264-431): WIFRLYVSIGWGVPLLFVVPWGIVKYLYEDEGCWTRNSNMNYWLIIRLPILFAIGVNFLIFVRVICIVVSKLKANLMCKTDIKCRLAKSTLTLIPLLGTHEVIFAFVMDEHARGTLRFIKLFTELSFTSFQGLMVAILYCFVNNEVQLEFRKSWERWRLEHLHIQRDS

5-HT2CR = target: T2, 5-HT2CR (Homo sapiens, UniProt P28335); experiment: biochemical; set-up: CPM fluorescent dye thermal shift assay on purified receptor, Tm shift versus apo receptor; conditions: single replicate of two; for ΔTm (°C): 100 µM, binder
T2 construct: gene HTR2C
T2 sequence (P28335 1-458): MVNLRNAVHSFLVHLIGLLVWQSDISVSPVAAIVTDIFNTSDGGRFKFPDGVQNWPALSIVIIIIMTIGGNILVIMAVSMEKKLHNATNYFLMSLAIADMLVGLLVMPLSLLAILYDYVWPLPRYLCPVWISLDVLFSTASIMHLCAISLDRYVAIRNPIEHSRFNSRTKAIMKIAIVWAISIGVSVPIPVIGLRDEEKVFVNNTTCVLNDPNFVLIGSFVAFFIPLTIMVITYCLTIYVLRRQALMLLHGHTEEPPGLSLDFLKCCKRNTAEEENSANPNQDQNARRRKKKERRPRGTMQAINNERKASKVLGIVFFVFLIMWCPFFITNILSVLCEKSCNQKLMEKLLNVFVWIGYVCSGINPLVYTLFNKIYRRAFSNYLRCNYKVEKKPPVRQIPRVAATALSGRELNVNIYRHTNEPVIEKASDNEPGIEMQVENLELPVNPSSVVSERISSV
Method: The thermal shift assay using a CPM fluorescent dye (Sigma) was performed as described in the literature.[27] […] The protein sample was heated step-wise on a Rotor-Gene Thermo-optical Analyzer (QIAGEN Gmbh) from 25 °C to 95 °C. Upon temperature rise, the proteins unfolded and cysteine residues were exposed to form adducts with CPM, which were detected by fluorescence at 387/463 nm using an EnVision multilabel plate reader (PerkinElmer). From the normalized thermal stability curve, melting temperatures (Tm) were obtained by fitting the curve with a Boltzmann sigmoidal function using GraphPad Prism. Comparison of Tm for the apo receptor and receptor incubated with a compound gave rise to Tm shift (ΔTm) for the compound. Using stringent data processing criteria for compound annotation and hit selection (see ESI ^†), we identified a total of 23 initial hits from screening the 9 cocktails (Fig. 2, full data set in Table S1 ^†). Twelve were well characterized antagonists for 5-HT2CR or a closely-related subfamily member 5-HT2AR with a mean BI of 2.16 to 9.71 (full data set in Table S2 ^†). […] While their IC50 or Ki values from the ChEMBL database were all above 10 nM, 85% had IC50 or Ki > 100 nM towards 5-HT2CR. Therefore, the stringent BI cut-off defined for hit selection ensured identification of highest affinity ligands with a minimal false-positive rate. To verify the 11 initial hits with no documented binding to the 5-HT2 receptor family, a simple mixture was created by pooling and incubating them with the receptor-expressing membranes. Four hits were verified in this secondary affinity MS assay (Fig. 3a). Those that were invalidated could have resulted from compound misidentification or altered binding properties in the original complex mixtures. […] The radioligand competition assay verified potent antagonist binding of 3943 to all three 5-HT2 receptor subtypes in the nanomolar range, with stronger affinity to 5-HT2A/2BR than 5-HT2CR (Fig. 3c, S3b ^†). It was not surprising to identify a new antagonist against three 5-HT2 receptor subfamily members using our approach because of the high sequence homology and very similar ligand binding pockets among them.

## CC1(C)CC([C@@H](Nc2ccc(-n3cnc(C(F)(F)F)c3)nc2)c2ccc(C(=O)NCCC(=O)O)cc2)C1 [PF06372222]
[1]
  affinity MS on receptor-expressing membranes, binding index vs rhodopsin control: 16.66 binding index (ratio)

## C[C@@H]1CN(c2c(F)c(F)c3c(=O)c(C(=O)O)cn(C4CC4)c3c2F)C[C@H](C)N1 [compound 1382, Orbifloxacin]
5-HT2CR
  ΔTm at 100 µM: 2 °C

## C1=Cc2ccccc2C(=C2CCN(CCCCc3nn[nH]n3)CC2)c2ccccc21 [compound 3943, AT-56]
5-HT2CR
  ΔTm at 100 µM: 6.2 °C
  ΔTm (°C): 6.9 °C

## CC(C)c1nc(CN(C)C(=O)N[C@H](C(=O)N[C@@H](Cc2ccccc2)C[C@H](O)[C@H](Cc2ccccc2)NC(=O)OCc2cncs2)C(C)C)cs1 [compound 462, Ritonavir]
5-HT2CR
  ΔTm at 100 µM: 0.2 °C

## O=C(NC1CCNCC1)c1n[nH]cc1NC(=O)c1c(Cl)cccc1Cl [compound 3931, AT 7519]
5-HT2CR
  ΔTm (°C): -3.0 °C and -0.2 °C

## CS(=O)(=O)c1cccc(NC(=O)N(Cc2ccc(C(=O)Nc3nnn[nH]3)cc2)c2ccc(C3CCCCC3)cc2)c1 [NNC0640]
[1]
  affinity MS on receptor-expressing membranes, binding index vs rhodopsin control: 3.31 binding index (ratio)
